The values that follow come from patent publication US8895471B2, “Chiral3-(benzylsulfinyl)-5,5-dimethyl-4,5-dihydroisoxazole derivatives and 5,5-dimethyl-3-[(1h-pyrazol-4-ylmethyl)sulfinyl]-4,5-dihyddroisoxazole derivatives, method for the production thereof, and use of same as herbicides and plant growth regulators” (Bayer Cropscience AG, priority 2007, dated 2014).

The test system of assay [1] is Brassica napus (winter rape). Description: Pre-emergence herbicidal effect and crop plant compatibility, BRSNW. It is filed as in vivo. The settings on record: scored after about 3 weeks. The text has this: (§1) 1. Pre-emergence herbicidal effect and crop plant compatibility
(§2) • Seeds of monocotyledonous or dicotyledonous weed plants or crop plants are planted in wood-fiber pots in sandy loam and covered with soil. The compounds according to the invention, formulated in the form of wettable powders (WP), are then applied as aqueous suspension at a water application rate of 600 l/ha (converted) with the addition of 0.2% of wetting agent to the surface of the covering soil. • After the treatment, the pots are placed in a greenhouse and kept under good growth conditions for the test plants. After about 3 weeks, the effect of the preparations is scored visually in comparison with untreated controls (herbicidal effect in percent (%): 100% activity=the plants have died, 0% activity=like control plants). • As shown by the results, the compounds according to the invention have good herbicidal pre-emergence activity against a broad spectrum of weed grasses and broad-leaved weeds. […] Some of the compounds according to the invention have high selectivity and are therefore suitable for controlling unwanted vegetation in agricultural crops by the pre-emergence method.
(§3) • ALOMY Alopecurus myosuroides (black-grass) • LOLMU: Lolium multiflorum (Italian ryegrass) • SETVI: Setaria viridis (green foxtail) • BRSNW: Brassica napus (winter rape) • ZEAMX: Zea mays (corn) 2. Post-Emergence Herbicidal Effect and Crop Plant Compatibility • Seeds of monocotyledonous and dicotyledonous weed and crop plants are placed in sandy loam in wood fibre pots, covered with soil and cultivated in a greenhouse under good growth conditions. 2 to 3 weeks after sowing, the test plants are treated at the one-leaf stage. The compounds according to the invention, formulated in the form of wettable powders (WP), are then applied by spraying as aqueous suspension at a water application rate of 600 l/ha (converted) with the addition of 0.2% of wetting agent to the green parts of the plants. After the test plants have been kept in the greenhouse under optimum growth conditions for about 3 weeks, the activity of the preparations is rated visually in comparison to untreated controls (herbicidal activity in percent (%): 100% activity=the plants have died, 0% activity=like control plants). • As shown by the results, the compounds according to the invention have good herbicidal post-emergence activity against a plurality of weed grasses and broad-leaved weeds. […] Some of the compounds according to the invention have high selectivity and are therefore suitable for controlling unwanted vegetation in agricultural crops by the post-emergence method.

Assay [2] deals with Alopecurus myosuroides (black-grass). Description: Pre-emergence herbicidal effect, ALOMY. The class given is in vivo. Conditions: scored after about 3 weeks.
Source text: as §1, §2, §3

Assay [3] deals with Lolium multiflorum (Italian ryegrass). Description: Pre-emergence herbicidal effect, LOLMU. It is filed as in vivo. The settings on record: scored after about 3 weeks.
Source text: as §1, §2, §3

For assay [4], the system named is Setaria viridis (green foxtail). The experiment in a line: Pre-emergence herbicidal effect, SETVI. Conditions: scored after about 3 weeks. It is filed as in vivo.
Source text: as §1, §2, §3

The test system of assay [5] is Avena fatua, Stellaria media, Echinochloa crus-galli, Lolium multiflorum, Setaria viridis, Amaranthus retroflexus, Viola tricolor, Veronica persica and …. Description: Pre-emergence herbicidal activity against harmful plants. The class given is in vivo. Conditions: application rate of 0.32 kg and less of active substance per hectare.
Source text: as §1, §2

For assay [6], the system named is Avena fatua, Echinochloa crus-galli, Lolium multiflorum, Setaria viridis and Alopecurus myosuroides. Description: Post-emergence herbicidal effect and crop plant compatibility. The class given is in vivo. Conditions: application rate of 0.32 kg and less of active substance per hectare.
Source text: as §3

The test system of assay [7] is Zea mays (corn). The experiment in a line: Pre-emergence herbicidal effect and crop plant compatibility, ZEAMX. Conditions: scored after about 3 weeks. It is filed as in vivo.
Source text: as §1, §2, §3

The test system of assay [8] is POLCO. The experiment in a line: Pre-emergence herbicidal effect, POLCO. It is filed as in vivo. The settings on record: scored after about 3 weeks.
Source text: as §1, §2

Assay [9] concerns VERPE. The experiment in a line: Pre-emergence herbicidal effect, VERPE. The class given is in vivo, Veronica persica. The settings on record: scored after about 3 weeks.
Source text: as §1, §2

In the case of `Cn1nc(C(F)(F)F)c(C[S@+]([O-])C2=NOC(C)(C)C2)c1OC(F)F` [Compound 483, 3-[(S)-{[5-(Difluoromethoxy)-1-methyl-3-(trifluoromethyl)-1H-pyrazol-4-yl]methyl}sulfinyl]-5,5-dimethyl-4,5-dihydroisoxazole], the “herbicidal effect in percent, BRSNW (crop plant)” value in assay [1] (20 g of active compound/ha) and in [1] (80 g of active compound/ha) was 0% in each case. The “herbicidal effect in percent, ALOMY” value is 80% in assay [2] (20 g of active compound/ha) and 100% in assay [2] (80 g of active compound/ha). Also, the “herbicidal effect in percent, LOLMU” value in [3] (20 g of active compound/ha) is 60%; in [3] (80 g of active compound/ha), 100%. Also, the “herbicidal effect in percent, SETVI” value is 80% in assay [4] (20 g of active compound/ha) and 90% in assay [4] (80 g of active compound/ha). The “herbicidal activity against harmful plants, pre-emergence method” value (“herbicidal activity … pre-emergence method” for short) in assay [5] is recorded as “very good herbicidal activity”. Besides, the “herbicidal activity against harmful plants, post-emergence method” value (from here on “herbicidal activity … post-emergence method”) in assay [6] was “very good herbicidal activity”.
For `CC1(C)CC([S+]([O-])Cc2c(Cl)cccc2Cl)=NO1` (racemic) [Racemate of 32 (S config.) and 254 (R config.), 3-[(2,6-dichlorobenzyl)sulfinyl]-5,5-dimethyl-4,5-dihydroisoxazole, reference compound], the “herbicidal effect in percent, ALOMY” value in [2] (20 g of active compound/ha) was found to be 80%; in assay [2] (80 g of active compound/ha), 90%. Also, the “herbicidal effect in percent, ZEAMX (crop plant)” value was determined as 0% in assay [7] (20 g of active compound/ha) and 10% in [7] (80 g of active compound/ha). The “herbicidal effect in percent, POLCO” value in [8] (80 g of active compound/ha) stood at 20%. Moreover, the “herbicidal effect in percent, VERPE” value in [9] (20 g of active compound/ha) worked out at 0%.
Take `CC1(C)CC([S@+]([O-])Cc2c(Cl)cccc2Cl)=NO1` [Compound 254, 3-[(R)-(2,6-dichlorobenzyl)sulfinyl]-5,5-dimethyl-4,5-dihydroisoxazole]: the figures for the “herbicidal effect in percent, ALOMY” value in [2] (20 g of active compound/ha) and in assay [2] (80 g of active compound/ha) were 0% and 60%, respectively. For the same compound, the “herbicidal effect in percent, ZEAMX (crop plant)” value in assay [7] (20 g of active compound/ha) and in assay [7] (80 g of active compound/ha) was 0% throughout. Moreover, the “herbicidal effect in percent, POLCO” value came out at 10% in assay [8] (20 g of active compound/ha) and 20% in [8] (80 g of active compound/ha). Further, the figures for the “herbicidal effect in percent, VERPE” value in assay [9] (20 g of active compound/ha) and in assay [9] (80 g of active compound/ha) were 0% and 20%, respectively. Also, in assay [5], the “herbicidal activity … pre-emergence method” value was “very good herbicidal activity”. The “herbicidal activity … post-emergence method” value in [6] is “very good herbicidal activity”.
Consider `CC1(C)CC([S+]([O-])Cc2c(F)cccc2F)=NO1` (racemic) [Racemate of 6 (S config.) and 228 (R config.), 3-[(2,6-difluorobenzyl)sulfinyl]-5,5-dimethyl-4,5-dihydroisoxazole, reference compound], for which the “herbicidal effect in percent, BRSNW (crop plant)” value in [1] (80 g of active compound/ha) turned out to be 20%; in assay [1] (320 g of active compound/ha) it was 30%. Also, the entries for the “herbicidal effect in percent, ALOMY” value in assay [2] (80 g of active compound/ha) and in assay [2] (320 g of active compound/ha) were 70% and 100%, respectively. In addition, the “herbicidal effect in percent, LOLMU” value in assay [3] (80 g of active compound/ha) and in [3] (320 g of active compound/ha) was 80% throughout. The “herbicidal effect in percent, SETVI” value in assay [4] (80 g of active compound/ha) and in assay [4] (320 g of active compound/ha) was 40% throughout.
Regarding `CC1(C)CC([S@@+]([O-])Cc2c(F)cccc2F)=NO1` [Compound 6, 3-[(S)-(2,6-Difluorobenzyl)sulfinyl]-5,5-dimethyl-4,5-dihydroisoxazole], the “herbicidal effect in percent, BRSNW (crop plant)” value in assay [1] (80 g of active compound/ha) and in [1] (320 g of active compound/ha) was 0% throughout. For the same compound, the “herbicidal effect in percent, ALOMY” value in [2] (80 g of active compound/ha) was determined as 90%; in assay [2] (320 g of active compound/ha), 100%. In addition, the results for the “herbicidal effect in percent, LOLMU” value in assay [3] (80 g of active compound/ha) and in assay [3] (320 g of active compound/ha) were 80% and 100%, respectively. Moreover, the “herbicidal effect in percent, SETVI” value in assay [4] (80 g of active compound/ha) came out at 60%; in [4] (320 g of active compound/ha), 100%. Moreover, in assay [5], the “herbicidal activity … pre-emergence method” value is listed as “very good herbicidal activity”. Moreover, in assay [6], the “herbicidal activity … post-emergence method” value is on record as “very good herbicidal activity”.
`Cn1nc(C(F)(F)F)c(C[S+]([O-])C2=NOC(C)(C)C2)c1OC(F)F` (racemic) [Racemate of 483 (S config.) and 664 (R config.), 3-({[5-(difluoromethoxy)-1-methyl-3-(trifluoromethyl)-1H-pyrazol-4-yl]methyl}sulfinyl)-5,5-dimethyl-4,5-dihydroisoxazole, reference compound]: the “herbicidal effect in percent, BRSNW (crop plant)” value in [1] (20 g of active compound/ha) and in assay [1] (80 g of active compound/ha) was 0% each time. Also, the “herbicidal effect in percent, ALOMY” value in assay [2] (20 g of active compound/ha) was found to be 0%; in assay [2] (80 g of active compound/ha) it was 90%. Moreover, the “herbicidal effect in percent, LOLMU” value in [3] (20 g of active compound/ha) worked out at 0%; in assay [3] (80 g of active compound/ha), 90%. The “herbicidal effect in percent, SETVI” value is listed as 40% in assay [4] (20 g of active compound/ha) and 80% in [4] (80 g of active compound/ha).
Take `Cn1nc(C(F)(F)F)c(C[S@@+]([O-])C2=NOC(C)(C)C2)c1OC(F)F` [Compound 664, 3-[(R)-{[5-(difluoromethoxy)-1-methyl-3-(trifluoromethyl)-1H-pyrazol-4-yl]methyl}sulfinyl]-5,5-dimethyl-4,5-dihydroisoxazole]: the “herbicidal activity … pre-emergence method” value in assay [5] was “very good herbicidal activity”. Moreover, in assay [6], the “herbicidal activity … post-emergence method” value is reported as “very good herbicidal activity”.
Consider `CC1(C)CC([S@+]([O-])Cc2c(F)cccc2F)=NO1` [Compound 228, 3-[(R)-(2,6-difluorobenzyl)sulfinyl]-5,5-dimethyl-4,5-dihydroisoxazole], for which the “herbicidal effect in percent, BRSNW (crop plant)” value in assay [1] (80 g of active compound/ha) and in assay [1] (320 g of active compound/ha) was 0% throughout. Further, the results for the “herbicidal effect in percent, ALOMY” value in assay [2] (80 g of active compound/ha) and in assay [2] (320 g of active compound/ha) were 60% and 80%, respectively. Also, the “herbicidal effect in percent, LOLMU” value in assay [3] (80 g of active compound/ha) and in assay [3] (320 g of active compound/ha) was 0% throughout. Besides, the “herbicidal effect in percent, SETVI” value in assay [4] (80 g of active compound/ha) was 0%; in assay [4] (320 g of active compound/ha), 50%. For the same compound, the “herbicidal activity … pre-emergence method” value in [5] was “very good herbicidal activity”. Moreover, the “herbicidal activity … post-emergence method” value in [6] is on record as “very good herbicidal activity”.
Consider `CC1(C)CC([S@@+]([O-])Cc2c(Cl)cccc2Cl)=NO1` [Compound 32, 3-[(S)-(2,6-Dichlorobenzyl)sulfinyl]-5,5-dimethyl-4,5-dihydroisoxazole], for which the “herbicidal effect in percent, ALOMY” value stood at 80% in assay [2] (20 g of active compound/ha) and 100% in assay [2] (80 g of active compound/ha). In addition, the “herbicidal effect in percent, ZEAMX (crop plant)” value in assay [7] (20 g of active compound/ha) and in assay [7] (80 g of active compound/ha) was 0% each time. The “herbicidal effect in percent, POLCO” value in assay [8] (20 g of active compound/ha) was determined as 40%; in assay [8] (80 g of active compound/ha) it was 80%. In addition, the “herbicidal effect in percent, VERPE” value in assay [9] (20 g of active compound/ha) amounted to 40%; in assay [9] (80 g of active compound/ha) it was 100%. Also, the “herbicidal activity … pre-emergence method” value in assay [5] was “very good herbicidal activity”. In [6], the “herbicidal activity … post-emergence method” value is “very good herbicidal activity”.
